Experimental data from patent US20060148730A1, “Method of treating tuberculosis” (priority 2003, published 2006).
Converted amounts (≈) assume the structure as drawn. Like-named read-outs stand apart in the source and are kept apart here.

Test system: M. tuberculosis H37Rv
Test: MIC vs. M. tuberculosis H37Rv, microplate Alamar Blue assay (MABA)
Assay type: cell-based
Conditions: read-out: MIC
[1] = Mycobacterium tuberculosis, H37RV, Table 4
[2] = Table 1a, 11,12-carbamate derivatives, anti-TB activity
[3] = Table 3, parallel-synthesis carbazate library products, SPE purified

CC[C@H]1OC(=O)[C@H](C)[C@@H](O[C@H]2CC(C)(OC)[C@@H](O)[C@H](C)O2)[C@H](C)[C@@H](O[C@@H]2O[C@H](C)C[C@H](N(C)C)[C@H]2O)[C@](C)(OC)C[C@@H](C)C(=O)[C@H](C)[C@H]2N(CC/C=C\c3ccccc3)C(=O)O[C@]12C (some centres unmarked) [ITR0020]
MIC [1]: 6.6 µM (≈ 5.96 µg/mL)

CC[C@H]1OC(=O)[C@H](C)C(=O)[C@H](C)[C@@H](O[C@@H]2O[C@H](C)C[C@H](N(C)C)[C@H]2O)[C@](C)(OC)C[C@@H](C)C(=O)[C@H](C)[C@H]2N(NCCc3ccccc3)C(=O)O[C@]12C [RU70645]
MIC [2]: 14 µM (≈ 10.2 µg/mL)

CC[C@H]1OC(=O)[C@H](C)[C@@H](O[C@H]2CC(C)(OC)[C@@H](O)[C@H](C)O2)[C@H](C)[C@@H](O[C@@H]2O[C@H](C)C[C@H](N(C)C)[C@H]2O)[C@](C)(OC)C[C@@H](C)C(=O)[C@H](C)[C@H]2N(NCc3ccc(N4CCC(c5ccccc5OC)CC4)c([N+](=O)[O-])c3)C(=O)O[C@]12C (some centres unmarked) [G12′]
MIC [3]: 19 µM (≈ 21.1 µg/mL)

CC[C@H]1OC(=O)[C@H](C)[C@@H](OC2CC(C)(OC)C(O)C(C)O2)[C@H](C)[C@@H](OC2OC(C)CC(N(C)C)C2OC(=O)Nc2ccccc2)[C@](C)(OC)C[C@@H](C)C(=O)[C@H](C)[C@@H](O)[C@]1(C)O (some centres unmarked) [Compound 3ZZ19]
MIC [1]: 12 µM (≈ 10.4 µg/mL)

CCC1OC(=O)C(C)C(OC2CC(C)(OC)C(O)C(C)O2)C(C)C(OC2OC(C)CC(N(C)C)C2O)C(C)(O)CC(C)C(=NN=Cc2cccc(OC(F)(F)F)c2)C(C)C(O)C1(C)O (centres unmarked) [Compound 1OK109]
MIC (Table 5): 11 µM (≈ 10.1 µg/mL)

CCC1OC(=O)C(C)C(OC2CC(C)(OC)C(O)C(C)O2)C(C)C(OC2OC(C)CC(N(C)C)C2O)C(C)(O)CC(C)C(=NNCc2ccc(SC)cc2)C(C)C(O)C1(C)O (centres unmarked) [Compound 1OK137]
MIC (Table 5): 47 µM (≈ 41.6 µg/mL)

CC[C@H]1OC(=O)[C@H](C)[C@@H](O[C@H]2CC(C)(OC)[C@@H](O)[C@H](C)O2)[C@H](C)[C@@H](O[C@@H]2O[C@H](C)C[C@H](N(C)C)[C@H]2O)[C@](C)(OC)C[C@@H](C)C(=O)[C@H](C)[C@H]2N(NCc3c(-c4ccccc4)noc3C)C(=O)O[C@]12C (some centres unmarked) [C10′]
MIC [3]: 12 µM (≈ 11.5 µg/mL)

CCC1OC(=O)C(C)C(OC2CC(C)(OC)C(O)C(C)O2)C(C)C(OC2OC(C)CC(N(C)C)C2OC(=S)Nc2ccccc2)C(C)(OC)CC(C)C(=O)C(C)C(O)C1(C)O (centres unmarked) [Compound 3ZZ61b]
MIC (Table 5): 7.3 µM (≈ 6.45 µg/mL)

CC[C@H]1OC(=O)[C@H](C)[C@@H](O[C@H]2CC(C)(OC)[C@@H](O)[C@H](C)O2)[C@H](C)[C@@H](O[C@@H]2O[C@H](C)C[C@H](N(C)C)[C@H]2O)[C@](C)(OC)C[C@@H](C)C(=O)[C@H](C)[C@H]2N(CCCCc3ccnc4ccccc34)C(=O)O[C@]12C (some centres unmarked) [RU66080]
MIC [2]: 0.44 µM (≈ 0.421 µg/mL)

CC[C@H]1OC(=O)[C@H](C)[C@@H](O[C@H]2CC(C)(OC)[C@@H](O)[C@H](C)O2)[C@H](C)[C@@H](O[C@@H]2O[C@H](C)C[C@H](N(C)C)[C@H]2O)[C@](C)(OC)C[C@@H](C)C(=O)[C@H](C)[C@H]2N(NCc3c(C)[nH]c4ccc([N+](=O)[O-])cc34)C(=O)O[C@]12C (some centres unmarked) [B11′]
MIC [3]: >22 µM

CCC1OC(=O)C(C)C(OC2CC(C)(OC)C(O)C(C)O2)C(C)C(OC2OC(C)CC(N(C)C)C2O)C(C)(OC)CC(C)C(=NOC2CCCNC2)C(C)C(O)C1(C)O (centres unmarked) [ITR0009]
MIC (Table 4): 24 µM (≈ 20.3 µg/mL)

CC[C@H]1OC(=O)[C@H](C)[C@@H](O[C@H]2CC(C)(OC)[C@@H](O)[C@H](C)O2)[C@H](C)[C@@H](O[C@@H]2O[C@H](C)C[C@H](N(C)C)[C@H]2O)[C@](C)(OC)C[C@@H](C)C(=O)[C@H](C)[C@H]2N(NCc3[nH]ncc3Br)C(=O)O[C@]12C (some centres unmarked) [D1′]
MIC [3]: 23 µM (≈ 21.8 µg/mL)

CC[C@H]1OC(=O)[C@H](C)C(=O)[C@H](C)[C@@H](O[C@@H]2O[C@H](C)C[C@H](N(C)C)[C@H]2O)[C@](C)(OC)C[C@@H](C)C(=O)[C@H](C)[C@@H](O)[C@]1(C)O [RU56006]
MIC (Table 2a, 11,12-diols, anti-TB activity): >128 µM

CC[C@H]1OC(=O)[C@H](C)[C@@H](O[C@H]2CC(C)(OC)[C@@H](O)[C@H](C)O2)[C@H](C)[C@@H](O[C@@H]2O[C@H](C)C[C@H](N(C)C)[C@H]2O)[C@](C)(OC)C[C@@H](C)C(=O)[C@H](C)[C@H]2N(NCc3c(C)noc3C)C(=O)O[C@]12C (some centres unmarked) [C6′]
MIC [3]: >17 µM
